Structures are written as SMILES. Active and inactive are the calls of the source.

In assay [1] the target is Cyclin-dependent kinase 2 (Homo sapiens, UniProt P24941). Put plainly: inhibition of human CDK2/cyclin A – biochemical, cherry-picked samples, selectivity assay for Dyrk1A inhibitor project, dose response (AID 602127).
Assay [2] addresses Dual specificity protein kinase CLK1 (Homo sapiens, UniProt P49759). Kind of assay: inhibition of human CLK1 activity – biochemical, cherry-picked samples, selectivity assay for Dyrk1A inhibitor project, dose response (AID 588811).
The next assay relates to Jurkat. Put plainly: SAR Analysis of small molecule inhibitors of […] specific antigen receptor-induced NF-kB activation in a Jurkat cell line using a luminescence assay - Set 3. [Related pubchem assays (depositor defined):AID435022, AID435025, AID465]. Conditions: Homo sapiens. The format is functional, cell-based.
The test system of assay [3] is HEK293. Kind of assay: SAR Analysis of small molecule inhibitors of B-cell specific antigen receptor-induced NF-kB activation in a HEK-293T cell line using a luminescence assay - Set 2. [Related pubchem assays (depositor defined):AID435022, AID435025, AID489021]. In kind it is functional, cell-based. Conditions: Homo sapiens.
The test system of assay [4] is HEK293. Put plainly: HEK293T cell viability loss, resazurin readout – resazurin fluorescence, cytotoxicity control for NF-kB activator project, SAR follow-up (AID 493251). In kind it is functional, cell-based. Conditions: Homo sapiens. (Resazurin is reduced to fluorescent resorufin, in cell work by metabolically active cells.)
Assay [5] relates to Candida albicans. Put plainly: fluconazole-resistant Candida strain growth inhibitors – CaCi-8 strain, dry powder, set 4, dose response (AID 488950). In kind it is functional, organism-based.
Assay [6] relates to Candida albicans. Put plainly: C. albicans growth inhibition with fluconazole – CaCi-2 strain, Alamar Blue, dry powder, set 4, dose response (AID 488943). In kind it is functional, organism-based.
In assay [7] the test system is Candida albicans. Put plainly: resistant Candida growth with fluconazole co-treatment – CaCi-8 strain, Alamar Blue, dry powder, set 2, dose response (AID 488909). The format is functional, organism-based.
A further assay concerns Vero. Put plainly: viability of Vero cells under compound – cytotoxicity control for flavivirus capping enzyme inhibitors (AID 588742). In kind it is functional. Conditions: Chlorocebus sabaeus.
The target in the next assay is Genome polyprotein (dengue virus type 2, UniProt P29990). Kind of assay: flavivirus cap methylation enzyme inhibition – biochemical, confirmation dose response, primary screen (AID 588689). In kind it is functional.
Sequence of Genome polyprotein (P29990 2492-3391 limits assumed): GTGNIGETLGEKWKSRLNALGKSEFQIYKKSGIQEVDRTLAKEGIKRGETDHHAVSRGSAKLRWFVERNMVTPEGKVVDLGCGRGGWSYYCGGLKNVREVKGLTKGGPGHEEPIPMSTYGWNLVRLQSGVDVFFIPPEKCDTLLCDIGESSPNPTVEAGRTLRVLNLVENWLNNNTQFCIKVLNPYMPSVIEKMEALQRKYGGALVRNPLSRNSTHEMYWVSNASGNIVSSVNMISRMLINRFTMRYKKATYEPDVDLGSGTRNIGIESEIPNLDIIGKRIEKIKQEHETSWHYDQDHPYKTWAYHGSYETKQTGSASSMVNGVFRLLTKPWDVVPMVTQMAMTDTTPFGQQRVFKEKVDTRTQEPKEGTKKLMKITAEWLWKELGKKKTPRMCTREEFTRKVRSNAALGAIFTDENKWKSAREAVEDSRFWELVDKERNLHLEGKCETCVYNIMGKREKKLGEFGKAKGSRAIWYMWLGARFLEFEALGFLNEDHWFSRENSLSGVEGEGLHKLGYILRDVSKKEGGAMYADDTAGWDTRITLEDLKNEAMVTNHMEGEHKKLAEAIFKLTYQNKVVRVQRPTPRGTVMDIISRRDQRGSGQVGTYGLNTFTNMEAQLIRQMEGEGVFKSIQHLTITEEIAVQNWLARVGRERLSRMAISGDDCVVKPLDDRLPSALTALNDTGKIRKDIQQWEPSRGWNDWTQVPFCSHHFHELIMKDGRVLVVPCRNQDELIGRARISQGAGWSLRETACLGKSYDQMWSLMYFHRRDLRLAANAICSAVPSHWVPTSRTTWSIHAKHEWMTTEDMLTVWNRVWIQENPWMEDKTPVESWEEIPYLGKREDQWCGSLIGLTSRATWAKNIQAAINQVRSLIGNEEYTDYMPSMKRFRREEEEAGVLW
A short description of assay [8]: Luminescence Cell-Based Dose Retest to Confirm Inhibitors of Cancer Stem Cells. [Related pubchem assays (depositor defined):AID2717, AID2721]. The format is functional, Homo sapiens. Conditions: Homo sapiens.
Another assay in a line: cells. The format is functional.
Assay [9] in a line: decrease of insulin promoter-GFP reporter – imaging, high-content screening, mouse beta cells (AID 1628). Conditions: MIN6. In kind it is functional.
Assay [10] in a line: loss of viability in HepG2 cells – cell-based, CellTiter-Glo, cherry-picked, cytotoxicity control for Shn3 inhibitor project, dose response (AID 624134). In kind it is functional.
Assay [11] has as its target NACHT, LRR and PYD domains-containing protein 1 (Homo sapiens, UniProt Q9C000). Put plainly: NALP1 inhibitors in yeast, dose response, luminescent (AID 488860). In kind it is functional.
Assay [12] can be described thus: reduction of Shn3 3'UTR-driven luciferase in osteoblasts – cell-based, Clone20 osteoblasts, firefly luciferase, cherry-picked, dose response (AID 624132).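 Note: firefly luciferase luminescence from reporter carrying the Shn3 3'UTR in osteoblasts.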 In kind it is functional.
Assay [13] deals with T1, Microphthalmia-associated transcription factor (Homo sapiens, UniProt O75030).
T1 sequence (O75030 whole entry): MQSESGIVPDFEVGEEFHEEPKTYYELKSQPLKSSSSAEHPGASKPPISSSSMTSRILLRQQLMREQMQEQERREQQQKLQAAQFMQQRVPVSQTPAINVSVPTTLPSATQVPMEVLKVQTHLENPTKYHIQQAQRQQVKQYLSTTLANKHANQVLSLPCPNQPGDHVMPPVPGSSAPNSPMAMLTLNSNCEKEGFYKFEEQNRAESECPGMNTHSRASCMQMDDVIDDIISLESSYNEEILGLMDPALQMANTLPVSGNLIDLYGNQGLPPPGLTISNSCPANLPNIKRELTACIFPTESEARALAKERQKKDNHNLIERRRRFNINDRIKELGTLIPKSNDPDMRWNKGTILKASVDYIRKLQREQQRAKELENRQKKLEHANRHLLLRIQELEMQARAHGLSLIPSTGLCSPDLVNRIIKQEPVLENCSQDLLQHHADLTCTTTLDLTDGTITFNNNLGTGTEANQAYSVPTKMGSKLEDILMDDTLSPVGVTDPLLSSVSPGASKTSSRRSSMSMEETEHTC
Put plainly: reducers of TRPM1 reporter luminescence, concentration series – cell-based, SK-MEL-5, cherry-picked, set 3, MITF inhibitor project, dose response (AID 493073).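 Note: SK-MEL-5 melanoma cells with luciferase driven by the MITF target TRPM1 promoter.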 In kind it is functional.

The test system of assay [14] is A-375. Put plainly: MITF: Counter assay: A375 proliferation Measured in Cell-Based System Using Plate Reader - 2084-03_Inhibitor_Dose_DryPowder_Activity. [Related pubchem assays (depositor defined):AID488944]. Conditions: Homo sapiens. In kind it is functional.
The nature of assay [15]: non-specific 3'UTR reporter inhibition in Clone20-Shn3RL – cell-based, Renilla luciferase, cherry-picked, counter-screen for Shn3 inhibitor project, dose response (AID 624133). In kind it is functional. A general note: A counterscreen serves to expose hits that act by an unwanted route or on another target.
Assay [16] in a line: viability of PTEN-deleted HCT116 cells – cell-based, HCT116 PTEN knockout, dose response (AID 1047).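 Note: HCT116 colon tumor cells with PTEN knocked out; cells exposed to compound for 60 hours before readout; potency for loss of cell viability measured by luminescence.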 The format is functional.
Assay [17] deals with A-375. Kind of assay: proliferation inhibition in MITF-low A375 cells – cell-based, cherry-pick samples, set 2, counter-screen for MITF modulator project, dose response (AID 540335). In kind it is functional. Conditions: Homo sapiens.
Assay [18] in a line: MIN6 cell viability loss – mouse insulinoma, cytotoxicity control, dose response (AID 2122).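 Note: confirmatory high-throughput counterscreen run to flag cytotoxic compounds.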 In kind it is functional.
Assay [19] in a line: HepG2 cell cytotoxicity, dose response, cytotoxicity control for non-replicating M. tuberculosis project (AID 489018). The format is functional. Conditions: Mycobacterium tuberculosis.
A short description of assay [20]: THP-1 cell cytotoxicity, dose response, cytotoxicity control for non-replicating M. tuberculosis project (AID 489025). The format is functional.
Assay [21] can be described thus: Vero E6 cell cytotoxicity, dose response, cytotoxicity control for non-replicating M. tuberculosis project, secondary assay (AID 492998). In kind it is functional, VeroE6. Conditions: Vero C1008.
In the next assay the test system is Saccharomyces cerevisiae. Kind of assay: S. cerevisiae Caspase-1/ASC signal blockers IC50, NALP1 inhibitor project selectivity test (AID 488863). The format is functional, organism-based.
Assay [22] in a line: viability of HCT116 lacking mutant beta-catenin – cell-based, human colon tumor, dose response (AID 1045).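 Note: HCT116 colon tumor cells with beta catenin knocked out; cells exposed to compound for 60 hours.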 In kind it is functional.
The target of assay [23] is Type-1 angiotensin II receptor (Homo sapiens, UniProt P30556). Put plainly: antagonism of angiotensin II type 1 receptor – cell-based, uHTS hits, selectivity assay for APJ receptor antagonist project, dose response (AID 463214).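 Note: antagonist potency against angiotensin II stimulated AT1 response.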 The format is functional.
Sequence of Type-1 angiotensin II receptor (P30556 whole entry): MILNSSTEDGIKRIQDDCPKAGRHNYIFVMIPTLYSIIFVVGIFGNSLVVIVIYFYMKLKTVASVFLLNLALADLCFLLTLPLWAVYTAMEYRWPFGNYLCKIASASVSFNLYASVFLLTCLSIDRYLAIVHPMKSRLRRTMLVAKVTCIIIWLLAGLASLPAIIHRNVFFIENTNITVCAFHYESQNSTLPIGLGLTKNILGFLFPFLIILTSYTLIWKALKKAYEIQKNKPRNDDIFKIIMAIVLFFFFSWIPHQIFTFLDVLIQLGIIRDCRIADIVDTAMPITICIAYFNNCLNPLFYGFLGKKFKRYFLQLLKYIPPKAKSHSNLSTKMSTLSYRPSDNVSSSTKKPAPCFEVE
For the next assay, the target named is Beta-galactosidase (Escherichia coli, UniProt Q8VNN2). Kind of assay: PubChem AID 485352. In kind it is functional.
The target of a further assay is Phospholipase D2 (Homo sapiens, UniProt O14939). Kind of assay: cellular phospholipase D2 inhibition IC50 – cell-based, dose response (AID 602147).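 Note: cellular assay in HEK293 cells overexpressing GFP-tagged PLD2.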 In kind it is functional.
Sequence of Phospholipase D2 (O14939 whole entry): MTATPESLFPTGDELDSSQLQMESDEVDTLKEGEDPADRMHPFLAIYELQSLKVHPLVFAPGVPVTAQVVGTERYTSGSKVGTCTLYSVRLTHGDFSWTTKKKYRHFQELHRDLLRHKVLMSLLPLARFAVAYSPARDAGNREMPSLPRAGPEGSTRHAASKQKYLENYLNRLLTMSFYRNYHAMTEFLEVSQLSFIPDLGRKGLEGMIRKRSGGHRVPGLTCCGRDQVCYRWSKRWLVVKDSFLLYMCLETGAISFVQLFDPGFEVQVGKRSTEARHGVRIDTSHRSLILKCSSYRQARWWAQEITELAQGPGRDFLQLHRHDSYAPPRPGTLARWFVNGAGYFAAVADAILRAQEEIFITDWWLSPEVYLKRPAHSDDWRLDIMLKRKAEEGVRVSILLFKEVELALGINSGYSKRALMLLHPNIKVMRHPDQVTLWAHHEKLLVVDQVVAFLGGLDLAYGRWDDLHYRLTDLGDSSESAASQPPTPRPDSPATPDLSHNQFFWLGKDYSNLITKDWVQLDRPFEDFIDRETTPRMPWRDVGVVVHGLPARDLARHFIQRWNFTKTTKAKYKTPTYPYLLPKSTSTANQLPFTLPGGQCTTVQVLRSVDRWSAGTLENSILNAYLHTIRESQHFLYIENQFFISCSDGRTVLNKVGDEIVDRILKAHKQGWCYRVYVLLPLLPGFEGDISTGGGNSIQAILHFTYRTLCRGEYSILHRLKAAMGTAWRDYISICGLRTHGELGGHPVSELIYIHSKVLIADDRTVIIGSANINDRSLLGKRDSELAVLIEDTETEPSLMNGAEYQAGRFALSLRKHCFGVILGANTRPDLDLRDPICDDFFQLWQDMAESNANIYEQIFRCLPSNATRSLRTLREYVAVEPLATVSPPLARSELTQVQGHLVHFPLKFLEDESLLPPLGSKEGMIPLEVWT
The next assay addresses Phospholipase D1 (Homo sapiens, UniProt Q13393). Kind of assay: cellular phospholipase D1 inhibition IC50 – cell-based, dose response (AID 602151).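 Note: cellular PLD1 assay in Calu-1 cells stimulated with PMA.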 In kind it is functional.

Sequence of NACHT, LRR and PYD domains-containing protein 1 (Q9C000 1-1212 limits assumed): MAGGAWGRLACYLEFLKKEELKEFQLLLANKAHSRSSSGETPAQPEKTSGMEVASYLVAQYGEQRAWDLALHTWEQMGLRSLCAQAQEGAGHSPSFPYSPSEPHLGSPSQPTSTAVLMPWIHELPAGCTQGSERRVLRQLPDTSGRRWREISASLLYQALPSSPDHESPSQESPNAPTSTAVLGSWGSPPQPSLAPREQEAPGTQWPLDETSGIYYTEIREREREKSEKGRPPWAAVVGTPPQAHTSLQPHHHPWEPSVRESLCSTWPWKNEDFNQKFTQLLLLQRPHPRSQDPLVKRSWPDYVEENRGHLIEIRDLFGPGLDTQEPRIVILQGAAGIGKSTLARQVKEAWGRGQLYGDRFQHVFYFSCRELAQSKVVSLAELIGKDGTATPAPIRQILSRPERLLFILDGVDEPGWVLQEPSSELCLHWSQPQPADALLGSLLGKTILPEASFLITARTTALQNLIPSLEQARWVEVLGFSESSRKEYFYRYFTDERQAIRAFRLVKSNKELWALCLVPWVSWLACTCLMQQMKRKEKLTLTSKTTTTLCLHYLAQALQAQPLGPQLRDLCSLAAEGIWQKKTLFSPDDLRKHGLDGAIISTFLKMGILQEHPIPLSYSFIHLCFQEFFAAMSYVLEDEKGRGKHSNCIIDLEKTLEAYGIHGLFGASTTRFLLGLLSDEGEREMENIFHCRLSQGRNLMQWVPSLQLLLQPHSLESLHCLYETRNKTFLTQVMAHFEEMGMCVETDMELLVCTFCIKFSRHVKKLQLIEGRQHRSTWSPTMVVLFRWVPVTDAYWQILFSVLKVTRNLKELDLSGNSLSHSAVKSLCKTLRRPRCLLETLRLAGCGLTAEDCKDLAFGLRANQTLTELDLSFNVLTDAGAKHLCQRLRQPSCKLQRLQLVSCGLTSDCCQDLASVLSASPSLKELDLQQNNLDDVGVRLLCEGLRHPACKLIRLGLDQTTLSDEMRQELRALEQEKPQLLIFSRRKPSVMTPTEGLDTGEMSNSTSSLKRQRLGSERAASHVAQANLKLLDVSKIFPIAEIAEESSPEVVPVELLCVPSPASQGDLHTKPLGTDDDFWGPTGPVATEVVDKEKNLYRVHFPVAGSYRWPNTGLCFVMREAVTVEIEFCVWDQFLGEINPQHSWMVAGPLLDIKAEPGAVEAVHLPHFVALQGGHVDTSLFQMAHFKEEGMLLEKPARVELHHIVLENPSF
Sequence of NACHT, LRR and PYD domains-containing protein 1 (Q9C000 1213-1473 limits assumed): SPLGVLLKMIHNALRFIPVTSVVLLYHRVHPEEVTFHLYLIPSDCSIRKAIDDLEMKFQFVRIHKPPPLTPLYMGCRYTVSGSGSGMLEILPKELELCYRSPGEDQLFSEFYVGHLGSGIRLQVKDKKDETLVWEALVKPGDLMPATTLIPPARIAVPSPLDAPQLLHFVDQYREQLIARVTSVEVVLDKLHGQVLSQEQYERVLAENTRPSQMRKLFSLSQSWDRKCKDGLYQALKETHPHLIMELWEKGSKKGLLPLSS
Sequence of Dual specificity protein kinase CLK1 (P49759 whole entry): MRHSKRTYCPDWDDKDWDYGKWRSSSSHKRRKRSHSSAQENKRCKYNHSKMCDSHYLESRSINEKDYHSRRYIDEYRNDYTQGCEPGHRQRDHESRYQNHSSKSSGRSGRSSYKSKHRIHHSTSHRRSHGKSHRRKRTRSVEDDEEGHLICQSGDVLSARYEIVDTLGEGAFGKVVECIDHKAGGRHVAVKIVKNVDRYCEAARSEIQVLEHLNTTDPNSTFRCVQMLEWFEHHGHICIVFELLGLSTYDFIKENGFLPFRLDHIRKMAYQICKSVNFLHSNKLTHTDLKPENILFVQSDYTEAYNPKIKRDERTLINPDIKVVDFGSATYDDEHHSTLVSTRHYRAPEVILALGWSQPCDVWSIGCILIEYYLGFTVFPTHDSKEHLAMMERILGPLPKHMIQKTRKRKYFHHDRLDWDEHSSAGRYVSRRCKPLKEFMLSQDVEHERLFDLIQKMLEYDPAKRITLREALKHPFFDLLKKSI

Turning to `c1cncc(CNc2nccc(-c3ccc4cn[nH]c4c3)n2)c1`, the AC50 was 13.8 µM (active) in [1] and 0.0754 µM (active) in [2].
As to `CNC(=O)CCc1nc(-c2ccc(F)cc2)no1`, the IC50 with Jurkat, in the assay with HEK293 [3] and with HEK293 [4] was > 80 µM (inactive) each time.
As to `O=C(c1ccc(Cl)cc1)N1CCN(c2ncnc3ccccc23)CC1`, the AC50 with Candida albicans [5] was 2.27 µM (active); with Candida albicans [6], 1.07 µM (active); in the assay with Candida albicans [7], 4.12 µM (active).
With `O=C1NC(=S)NC(=O)C1=Cc1c(Cl)cccc1Cl`, the CC50 in the assay with Vero is > 40 µM (active). Besides, the IC50 at Genome polyprotein is 26.9 µM (active).
Regarding `CCCOc1ccc(C(=O)C(CN2CCCC2)c2ccccc2)cc1` (stereo unspecified), the AC50 in assay [8] was 1.76 µM (active); in [10] it was 22.6 µM (active); in [12], 4.84 µM (active); in [13], 8.62 µM (active); with A-375 [14], > 35 µM (active); in assay [15], 13.2 µM (active). In addition, the AC50 with A-375 [17] was > 35 µM (active). Also, the IC50 in the assay “cells” was 12.7 µM (active); in assay [9], 3.73 µM (active); in assay [11], 10.2 µM (active); in [18] it was 3.13 µM (active); in the assay with Saccharomyces cerevisiae it was 5.8 µM (active). For the same molecule, the concentration giving a half-maximal response (EC50) in assay [16] is 2.19 µM (active); in assay [22] it was 1.96 µM (active). In addition, the CC50 is 13.3 µM (active) in [19], 6.32 µM (active) in assay [20] and 9.02 µM (active) in assay [21].
`Cc1ccc(C)c(NCC(=O)c2ccc(Cl)cc2)c1`: in assay [23], the IC50 was 14.4 µM (active). For the same molecule, the EC50 at Beta-galactosidase is > 40 µM (inactive).
Take `O=C(NCCN1CCC(n2c(=O)[nH]c3ccccc32)CC1)c1cscn1`: the results for the IC50 at Phospholipase D2 and on Phospholipase D1 were 0.25 µM (active) and 0.033 µM (active), respectively.

As usually defined, the AC50 is the concentration giving half of the maximal activity seen. In general, IC50 refers to the point on the concentration scale where inhibition reaches its midpoint. A word on the CC50: it is the concentration giving 50% cytotoxicity. Usually EC50 stands for the concentration needed to bring the measured effect to its halfway point.

The values above are taken from ChEMBL document CHEMBL1201862, “PubChem BioAssay data set” (2004).
